This note sets out measurements from article PMC13267291, “In vivo functional profiling and structural characterization of the human GLP1R A316T variant” (Science Advances, 2026).

Assay [1] deals with SNAP/FLAG-hGLP1R^A316T versus ^WT. Put plainly: GLP-1R conformational ECD opening TR-FRET assay. Type of assay: cell-based, human. To be noted: serial doses, 30 min; n = 5; Fig. 8E. As to the method: Nb37 bystander NanoBiT assays
INS-1 832/3 Glp1r-/- cells were seeded in 6-well plates and co-transfected with the following plasmids:
200 ng pSNAP/FLAG-hGLP1RWT or A316T, 500 ng Gαs (human, short isoform), 500 ng Gβ1 (human), 500 ng Gγ2 (human), 100 ng RIC8B (human, isoform 2), and either 100 ng LgBiT-CAAX (KRAS CAAX motif N-terminally fused with LgBiT) or 500 ng Endofin-LgBiT (Endofin FYVE domain C-terminally fused with LgBiT), plus 100 ng (plasma membrane assay) or 500 ng (endosomal assay) SmBiT-Nb37 [Nb37 cDNA synthesised by GenScript C- terminally fused to SmBiT with a 15 amino acid flexible linker (123) ] and adjusted for total DNA with pcDNA3.1 for the LgBiT-CAAX transfection. 24 hours after transfection, cells were exposed to NanoGlo Live Cell Reagent (Promega) with furimazine (1:20 dilution) and bioluminescence read in a Flexstation 3 plate reader for 8 min before and 30 min after stimulation by […]
AUCs were calculated for each agonist concentration and fitted to log(agonist) versus response four-parameter curves using GraphPad Prism 10.1.2, with logEC50 (potency) and Emax (efficacy) calculated for each replicate dose response curve. Baseline endosomal over plasma membrane bioluminescence ratios were also calculated.
GLP- 1R conformational ECD opening time resolved-fluorescence resonance energy transfer (TR- […]
signal serially monitored for 30 min. […]

Assay [2] concerns hGLP1R^A316T/A316T versus hGLP1R^+/+ mice. As to the kind of experiment: Plasma insulin 10 min into IPGTT, chow-fed mice. The following applies: chow diet. The format is in vivo, mouse. On the procedure: To measure insulin release during IPGTTs, 10 μl of blood samples were collected via tail venipuncture 10 min after a glucose challenge.
Plasma was collected into potassium EDTA cuvettes (Microvette CB 300, 16.444.100, Starstedt) and stored on ice before centrifugation at 8,000g for 10 min at 4°C to collect plasma supernatants in fresh Eppendorf tubes kept at −80°C until further analysis.

On to GLP-1(7-36)NH2, for which the “TR-FRET (ECD opening) in response to agonist, A316T versus WT” value in assay [1] was “significantly increased”.
As for exendin-4, in assay [2] (10 min into IPGTT, relative to effect in hGLP1R^+/+, Fig. 1L,M), the “Plasma insulin increase in response to agonist, hGLP1R^A316T/A316T mice” value is recorded as “attenuated”. Further, in assay [2] (10 min into IPGTT, versus vehicle, Fig. 1L,M), the “Plasma insulin levels in response to agonist, hGLP1R^+/+ mice” value is on record as “increased”. In addition, the “Agonist-dependent plasma insulin rises (vehicle fold changes), A316T/A316T versus +/+” value in assay [2] (significant at the 6-hour time point, Fig. 1N) is recorded as “reduced”.
